Experimental data published in patent EP2662361A1, “Pyrazol indanyl carboxamides” (Bayer CropScience AG, priority 2012, dated 2013).

Experiment: physchem
Format: physicochemical
Details: reversed-phase c18 hplc, pH 2.7
Procedure: The logP values were measured in accordance with EEC Directive 79/831 Annex V.A8 by HPLC (High Performance Liquid Chromatography) using reversed-phase columns (C 18) by the following methods: • [a] The LC-MS determination in the acidic range is effected at pH 2.7 with 0.1% aqueous formic acid and acetonitrile (contains 0.1 % formic acid) as eluents; linear gradient from 10 % acetonitrile to 95 % acetonitrile.

Row | Compound | chromatographic logP
1 | Cn1cc(C(=O)Nc2cccc3c2CC(O)C3)c(C(F)F)n1 (stereo not drawn) [compound 1] | 1.42
2 | CC(C)OC1Cc2cccc(NC(=O)c3cn(C)nc3C(F)F)c2C1 (stereo not drawn) [compound 2] | 2.71
3 | CC(C)C1Cc2cccc(NC(=O)c3cn(C)nc3C(F)F)c2C1 (stereo not drawn) [compound 3] | 3.77
4 | CC(C)CC1Cc2cccc(NC(=O)c3cn(C)nc3C(F)F)c2C1 (stereo not drawn) [compound 4] | 4.14
5 | CC1c2cccc(NC(=O)c3cn(C)nc3C(F)F)c2CC1(C)C (stereo not drawn) [compound 5] | 3.53
6 | CC1Cc2c(NC(=O)c3cn(C)nc3C(F)F)cccc2C1(C)C (stereo not drawn) [compound 6] | 3.55
